Data as given in US20220256900A1, “COMPOSITIONS WITH SUGAR LIKE CHARACTERISTICS” (CORN PRODUCTS DEVELOPMENT, INC., priority 2019, published 2022).

What was measured:
Format in all cases: in vivo
3 tasters [1] = test: Taste profile of Test Compound Na Salt with Reb A in pH 3.0 buffer (Example 5)
Experimental: (§1) The taste profile of the Test Compound Sweetener (Na Salt of the compound) was evaluated in combination with sweeteners—namely Rebaudioside A (Reb A). Enliten® 300000 (Reb A 95) was used in combination with the Test Compound. These samples were evaluated in pH 3.0 buffer by 3 tasters. Samples were tasted in a blinded fashion using sip and spit methodology. The focus of the evaluation was to obtain an indication of the sweetness profile of the blends when compared to sucrose. Materials and Methods. Potassium sorbate was dissolved into water. The remaining ingredients were added and mixed until fully dissolved. The pH of each sample was recorded and the samples tasted using sip and spit method. The samples were then compared to each other.

[2] = system: trained descriptive analysis (DA) panel; test: Concentration-response testing of the Test Compound vs sucrose, sweetness intensity on gLMS; details: in water at room temperature; tested range 0% to 0.2% (2000 ppm)
Experimental: A concentration-response (CR) testing of the Test Compound was conducted using a trained descriptive analysis (DA) panel to compare the Test Compound in an aqueous matrix to sucrose. The concentration-response curve for the natural sweetener (Test Compound) was determined using a general Labeled Magnitude Scale (gLMS). Trained panelists were asked to rate the sweetness intensity of eight (8) concentrations of sweetener and sucrose, in water at room temperature (RT). […] This relationship was established using a dose response model (Equation 2: R=Rmin+(C^Hillslope)*(Rmax−Rmin)/(C^HillSlope+EC50^HillSlope) for Sucrose and the Test Compound Sweetener. Study design and Test Samples: A trained panel of 10-12 descriptive analysis panelists participated in the experiment. All participants underwent training, during which panelists familiarized themselves with rating the sweetness intensity on the gLMS scale. The scale is depicted in FIG. 4 as a vertical line marked with anchors describing different intensities. The panelists were instructed to rate the perceived sweetness intensity for each sample by marking a line on the scale. The order of samples was randomized and blinded using the William's Latin Square design. The order of sample presentation within each sweetener set was also randomized. All samples were evaluated using a sip and spit protocol.

3 tasters [3] = test: Taste profile of Test Compound Na Salt with HFCS-55 in pH 3.0 buffer (Example 4); details: Test Compound (Na Salt) 1100 ppm
Experimental: as §1, with “High Fructose Corn Syrup (HFCS-55).” for “Rebaudioside A (Reb A). Enliten® 300000 (Reb A 95) was used in combination with the Test Compound.”

3 tasters [4] = test: Taste profile of Test Compound Na Salt with sucralose in pH 3.0 buffer (Example 7)
Experimental: The taste profile of the Test Compound Sweetener (Na Salt of the compound) was evaluated in combination with sweeteners—namely sucralose. These samples were evaluated in pH 3.0 buffer at 10 SE by 3 tasters. Samples were tasted in a blinded fashion using sip and spit methodology. The focus of the evaluation was to obtain an indication of the sweetness profile of the blends when compared to sucrose.
Materials and Methods. Potassium sorbate was dissolved into water. The remaining ingredients were added and mixed until fully dissolved. The samples were tasted using sip and spit method. The samples were then compared to each other and the HFCS-55 sweetness equivalence target (10 SE).

[5] = system: trained descriptive analysis (DA) panel; test: Sensory evaluation of Test Compound/Reb M blends (sweetness quality and off-taste profile), 15 cm scale; details: in water solution
[6] = system: trained descriptive analysis (DA) panel; test: as above; details: RO water, samples target 10 Brix sucrose, 1000 ppm Test Comp, 600 ppm Reb M; for Bitter Aftertaste (1 min) / Sweet Aftertaste (1 min): 1 minute after expectoration; for Bitter Aftertaste (3 min) / Sweet Aftertaste (3 min): 3 minutes after expectoration; for Astringent / Bitter / Licorice / Metallic / Sweet AT (Appearance Time) / Sweet Intensity (ns) / Thickness: room temperature, LSD means
Experimental: Sensory results for sweetener blends with Reb M were evaluated using a trained descriptive analysis (DA) panel. Five blend samples were tested in this panel; wherein each sample was designed to target a sweetness equivalence of 10 Brix Sucrose.
Study Designs and Test Samples. A validated and trained panel of 10-12 descriptive analysis panelists participated in these experiments.
During the test sessions, panelists rated the intensity of each attribute on a 15 cm scale. Five test samples were tested for each attribute, in triplicate. The order of samples was randomized and blinded using the Williams Latin Square design. All samples were prepared in reverse osmosis (RO) water and served at room temperature and evaluated using a sip and spit protocol.
Each of the five samples were evaluated for sensory attributes corresponding to sweetness quality and off-taste profile. Attributes of sweetness intensity, sweetness appearance time, sweetness aftertaste and thickness were evaluated as part of the sweetness quality profiling. Specifically, for sweetness aftertaste two time points were evaluated; 1 minute and 3 minutes, after expectoration. The sweetness aftertaste corresponds to the sweetness linger characteristic, often common to high potency sweeteners.
Off-Taste Profile. All 5 blend samples were also evaluated for attributes of bitter, astringent, metallic, licorice, and bitter aftertaste, as part of the off-taste profiling. Specifically, for bitter aftertaste two time points were evaluated; 1 minute and 3 minutes, after expectoration. When referring to ‘bitter’ tastes herein it refers to a sample that confers a bitter taste, activates or that can be detected by a bitter taste receptor and/or confers the perception of a bitter taste in a subject. Table 5 lists the LSD Means Differences for the off-taste evaluation across the 5 blend samples with Reb M.

[7] = 10 SE target, Test Compound Na Salt 1100 ppm, blend 550 ppm + 85 ppm Sucralose, Sucralose 170 ppm

## Cc1ccc2[nH]cc(C[C@@H](N)C(=O)O)c2c1 [Compound 5, (R)-2-amino-3-(5-methyl-1H-indol-3-yl)propanoic acid]
3 tasters [1]; in combination with Reb A
  adaptation: helped reduce the adaptation commonly with Reb A
[2]
  concentration-response curve (sweetness intensity, gLMS): linear relationship
3 tasters [3]; blend 550 ppm + 6.49% HFCS-55
  mouthfeel: lower in mouthfeel
3 tasters [3]; blend 550 ppm + 6.49% HFCS-55, HFCS-55 12.987%
  sweetness and taste: fairly clean in taste and provides good upfront sweetness
3 tasters [4]; in combination with sucralose
  adaptation: helped reduce the adaptation commonly with sucralose
[5]
  off-taste of the sweetener by itself: minimal bitterness, astringency and bitter linger
[6]
  Bitter Aftertaste (1 min): 0.2
  Sweet Aftertaste (1 min): 3.1
  Bitter Aftertaste (3 min): 0.1
  Sweet Aftertaste (3 min): 0.2
  Astringent: 1.7
  Bitter: 1.5
  Licorice: 1.6
  Metallic: 1.1
  Sweet AT (Appearance Time): 4.2
  Sweet Intensity (ns): 10.0
  Thickness: 6.7

## C=C1C[C@@]23CC[C@H]4[C@@](C)(CCC[C@@]4(C)C(=O)O[C@@H]4O[C@H](CO)[C@@H](O)[C@H](O)[C@H]4O)[C@@H]2CC[C@]1(O[C@@H]1O[C@H](CO)[C@@H](O)[C@H](O[C@@H]2O[C@H](CO)[C@@H](O)[C@H](O)[C@H]2O)[C@H]1O[C@@H]1O[C@H](CO)[C@@H](O)[C@H](O)[C@H]1O)C3 [Reb A, Rebaudioside A]
3 tasters [1]; 8SE target, Test Compound Na Salt 880 ppm, blend 440 ppm + 275 ppm Reb A, Reb A 550 ppm
  sweetness and taste: much less sweet than 8SE
3 tasters [1]; Test Compound Na Salt 880 ppm, blend 440 ppm + 275 ppm Reb A, Reb A 550 ppm
  onset, decay and off notes: plastic/floral/metallic taste to it with a bitter and astringent linger

## C=C1C[C@@]23CC[C@H]4[C@@](C)(CCC[C@@]4(C)C(=O)O[C@@H]4O[C@H](CO)[C@@H](O)[C@H](O[C@@H]5O[C@H](CO)[C@@H](O)[C@H](O)[C@H]5O)[C@H]4O[C@@H]4O[C@H](CO)[C@@H](O)[C@H](O)[C@H]4O)[C@@H]2CC[C@]1(O[C@@H]1O[C@H](CO)[C@@H](O)[C@H](O[C@@H]2O[C@H](CO)[C@@H](O)[C@H](O)[C@H]2O)[C@H]1O[C@@H]1O[C@H](CO)[C@@H](O)[C@H](O)[C@H]1O)C3 [Reb M, Rebaudioside M, reference compound]
[6]
  Bitter Aftertaste (1 min): 1.6
  Sweet Aftertaste (1 min): 5.1
  Bitter Aftertaste (3 min): 0.9
  Sweet Aftertaste (3 min): 1.8
  Astringent: 3.1
  Bitter: 4.0
  Licorice: 3.4
  Metallic: 1.7
  Sweet AT (Appearance Time): 6.8
  Sweet Intensity (ns): 10.0
  Thickness: 3.5

## OC[C@H]1O[C@H](O[C@]2(CCl)O[C@H](CCl)[C@@H](O)[C@@H]2O)[C@H](O)[C@@H](O)[C@H]1Cl [Sucralose, sucralose]
3 tasters [4]; [7]
  mouthfeel and aftertaste/linger: Significant aftertaste/linger
  sweetness vs HFCS-55 target: less sweet than HFCS (LOSE) with a delayed sweetness
